Data set [1] is described as follows: Bioavailability in Wistar rat plasma at 10 mg/kg, ip measured up to 24 hrs by LC-MS/MS analysis. The class given is ADME, organism-based.
Data set [2] in a line: AUC in Wistar rat brain at 10 mg/kg, ip measured up to 24 hrs by LC-MS/MS analysis. The class given is ADME, organism-based. Details: dose 10 mg/kg, time < 24 hrs, route ip. To be noted: in vivo.
Data set [3] can be described thus: Cmax in Wistar rat plasma at 10 mg/kg, ip measured up to 24 hrs by LC-MS/MS analysis. The data set is classed as ADME, organism-based. Also noted: dose 10 mg/kg, time < 24 hrs, route ip.
Data set [4] can be described thus: Tmax in Wistar rat plasma at 5 mg/kg, iv measured up to 24 hrs by LC-MS/MS analysis. The data set is classed as ADME, organism-based.
Data set [5] in a line: Half life in Wistar rat brain at 10 mg/kg, ip measured up to 24 hrs by LC-MS/MS analysis. The class given is ADME, organism-based.
A short description of data set [6]: AUC in Wistar rat plasma at 10 mg/kg, po measured up to 24 hrs by LC-MS/MS analysis. The conditions noted are these: in vivo. The data set is classed as ADME, organism-based. Also noted: time < 24 hrs, dose 10 mg/kg, route po.
Data set [7] in a line: Oral bioavailability in Wistar rat plasma at 10 mg/kg measured up to 24 hrs by LC-MS/MS analysis. The class given is ADME, organism-based.
Data set [8] is described as follows: Tmax in Wistar rat plasma at 10 mg/kg, po measured up to 24 hrs by LC-MS/MS analysis. The class given is ADME, organism-based.
Data set [9] is described as follows: Cmax in Wistar rat plasma at 5 mg/kg, iv measured up to 24 hrs by LC-MS/MS analysis. Also noted: dose 5 mg/kg, time < 24 hrs, route iv. The data set is classed as ADME, organism-based.
Data set [10] is described as follows: AUC in Wistar rat plasma at 5 mg/kg, iv measured up to 24 hrs by LC-MS/MS analysis. The class given is ADME, organism-based. Also noted: dose 5 mg/kg, time < 24 hrs, route iv. The conditions noted are these: in vivo.
Data set [11] can be described thus: AUC in Wistar rat plasma at 10 mg/kg, ip measured up to 24 hrs by LC-MS/MS analysis. Also noted: time < 24 hrs, dose 10 mg/kg, route ip. The data set is classed as ADME, organism-based. The conditions noted are these: in vivo.
Data set [12] is described as follows: AUC in Wistar rat brain at 10 mg/kg, po measured up to 24 hrs by LC-MS/MS analysis. The conditions noted are these: in vivo. The data set is classed as ADME, organism-based. Details: time < 24 hrs, dose 10 mg/kg, route po.
The nature of data set [13]: Half life in Wistar rat plasma at 5 mg/kg, iv measured up to 24 hrs by LC-MS/MS analysis. The class given is ADME, organism-based.
Data set [14] can be described thus: Half life in Wistar rat plasma at 10 mg/kg, po measured up to 24 hrs by LC-MS/MS analysis. The data set is classed as ADME, organism-based.
Data set [15] in a line: Cmax in Wistar rat brain at 10 mg/kg, ip measured up to 24 hrs by LC-MS/MS analysis. The data set is classed as ADME, organism-based. Also noted: time < 24 hrs, dose 10 mg/kg, route ip.
Data set [16] can be described thus: Cmax in Wistar rat brain at 10 mg/kg, po measured up to 24 hrs by LC-MS/MS analysis. Details: dose 10 mg/kg, time < 24 hrs, route po. The data set is classed as ADME, organism-based.
The nature of data set [17]: AUC in Wistar rat brain at 5 mg/kg, iv measured up to 24 hrs by LC-MS/MS analysis. The data set is classed as ADME, organism-based. Details: time < 24 hrs, dose 5 mg/kg, route iv. The conditions noted are these: in vivo.
Data set [18] can be described thus: Half life in Wistar rat brain at 5 mg/kg, iv measured up to 24 hrs by LC-MS/MS analysis. The data set is classed as ADME, organism-based.
The nature of data set [19]: Tmax in Wistar rat brain at 5 mg/kg, iv measured up to 24 hrs by LC-MS/MS analysis. The data set is classed as ADME, organism-based.
Data set [20] is described as follows: Tmax in Wistar rat brain at 10 mg/kg, po measured up to 24 hrs by LC-MS/MS analysis. The class given is ADME, organism-based.
The nature of data set [21]: Cmax in Wistar rat brain at 5 mg/kg, iv measured up to 24 hrs by LC-MS/MS analysis. The data set is classed as ADME, organism-based. Also noted: dose 5 mg/kg, time < 24 hrs, route iv.
A short description of data set [22]: Cmax in Wistar rat plasma at 10 mg/kg, po measured up to 24 hrs by LC-MS/MS analysis. The class given is ADME, organism-based. Also noted: dose 10 mg/kg, time < 24 hrs, route po.
Data set [23] is described as follows: Tmax in Wistar rat plasma at 10 mg/kg, ip measured up to 24 hrs by LC-MS/MS analysis. The class given is ADME, organism-based.
Data set [24] in a line: Tmax in Wistar rat brain at 10 mg/kg, ip measured up to 24 hrs by LC-MS/MS analysis. The data set is classed as ADME, organism-based.
A short description of data set [25]: Half life in Wistar rat plasma at 10 mg/kg, ip measured up to 24 hrs by LC-MS/MS analysis. The data set is classed as ADME, organism-based.
Data set [26] is described as follows: Lipophilicity, log P of the compound. The data set is classed as physicochemical. To be noted: octanol/water.
A short description of data set [27]: Cmax in CD-1 mouse brain at 10 mg/kg, ip measured up to 8 hrs by LC-MS/MS analysis. The class given is ADME, organism-based. Details: dose 10 mg/kg, time < 8 hrs, route ip.
Data set [28] can be described thus: Primary phase half life in CD-1 mouse plasma at 10 mg/kg, ip measured up to 8 hrs by LC-MS/MS analysis. The data set is classed as ADME, organism-based. To be noted: read-out: alphat1/2 (converted).
Data set [29] in a line: AUC in CD-1 mouse brain at 10 mg/kg, ip measured up to 8 hrs by LC-MS/MS analysis. The data set is classed as ADME, organism-based. Also noted: time < 8 hrs, dose 10 mg/kg, route ip. The conditions noted are these: in vivo.
Data set [30] in a line: AUC in CD-1 mouse plasma at 10 mg/kg, ip measured up to 8 hrs by LC-MS/MS analysis. The class given is ADME, organism-based. Also noted: time < 8 hrs, dose 10 mg/kg, route ip. To be noted: in vivo.
Data set [31] is described as follows: Primary phase half life in CD-1 mouse brain at 10 mg/kg, ip measured up to 8 hrs by LC-MS/MS analysis. The class given is ADME, organism-based. The conditions noted are these: read-out: alphat1/2 (converted).
Data set [32] in a line: Tmax in CD-1 mouse brain at 10 mg/kg, ip measured up to 8 hrs by LC-MS/MS analysis. The class given is ADME, organism-based.
Data set [33] is described as follows: Cmax in CD-1 mouse plasma at 10 mg/kg, ip measured up to 8 hrs by LC-MS/MS analysis. The data set is classed as ADME, organism-based. Details: dose 10 mg/kg, time < 8 hrs, route ip.
The nature of data set [34]: Tmax in CD-1 mouse plasma at 10 mg/kg, ip measured up to 8 hrs by LC-MS/MS analysis. The data set is classed as ADME, organism-based.
Data set [35] concerns the target Excitatory amino acid transporter 2 (Homo sapiens, UniProt P43004). The experiment in a line: Activation of human EAAT2 overexpressed in MDCK cells assessed as glutamate reuptake incubated for 5 mins by LCMS assay. The class given is cell-based.
A short description of data set [36]: Half life in Wistar rat brain at 10 mg/kg, po measured up to 24 hrs by LC-MS/MS analysis. The data set is classed as ADME, organism-based.

Sequence of Excitatory amino acid transporter 2 (P43004 whole entry): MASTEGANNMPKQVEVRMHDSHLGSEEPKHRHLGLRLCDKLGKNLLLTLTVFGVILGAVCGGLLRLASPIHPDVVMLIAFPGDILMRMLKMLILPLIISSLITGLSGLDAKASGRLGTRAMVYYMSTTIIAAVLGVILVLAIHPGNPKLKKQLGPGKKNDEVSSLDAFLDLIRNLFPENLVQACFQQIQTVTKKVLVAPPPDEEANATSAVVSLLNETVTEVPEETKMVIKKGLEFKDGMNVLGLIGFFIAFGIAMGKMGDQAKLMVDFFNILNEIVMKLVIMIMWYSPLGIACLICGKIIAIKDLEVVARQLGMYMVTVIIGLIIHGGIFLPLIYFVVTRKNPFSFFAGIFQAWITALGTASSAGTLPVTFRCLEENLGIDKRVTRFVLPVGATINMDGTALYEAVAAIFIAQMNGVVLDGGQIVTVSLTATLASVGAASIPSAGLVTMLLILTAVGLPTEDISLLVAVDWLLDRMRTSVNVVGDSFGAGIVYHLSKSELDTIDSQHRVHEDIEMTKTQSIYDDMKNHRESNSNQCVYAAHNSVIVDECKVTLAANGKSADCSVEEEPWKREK

`COc1ccc(NC(=O)C(=O)N2CCN(c3ccccc3)CC2)cc1`: the bioavailability in data set [1] was 58.4%; in [7], 17.5%. Moreover, the AUC in data set [2] was 429.85 ng·h/g; in data set [6], 321.93 ng·h/g; in data set [10], 919.43 ng·h/g; in data set [11], 1073.21 ng·h/g; in [12], 183 ng·h/g; in [17], 443.23 ng·h/g. For the same compound, the Cmax in data set [3] turned out to be 450 ng/g; in [9], 567 ng/g; in data set [15] it was 204 ng/g; in [16], 25 ng/g; in data set [21], 371 ng/g; in data set [22], 42.9 ng/g. The Tmax was found to be 0.5 h in data set [4]; 3.25 h in [8]; 0.5 h in data set [19]; 1.38 h in data set [20]; 0.63 h in data set [23]; 0.5 h in [24]. Besides, the half-life in data set [5] was 2.26 h; in data set [13], 6.08 h; in data set [14], 5.34 h; in data set [18], 1.52 h; in [25], 6.22 h.
On to `COc1ccc2[nH]c(=O)c(C(c3nnnn3CCc3ccccc3)N3CCN(C4CCCCC4)CC3)cc2c1` (stereo not drawn), for which the logP in [26] was greater than 6.
Consider `COc1ccc2[nH]c(=O)c(C(c3nnnn3CCc3ccccc3)N3CCN(c4cccc(C(F)(F)F)c4)CC3)cc2c1` (stereo not drawn), for which the Cmax is 30 ng/mL in data set [27] and 717 ng/mL in [33]. The half-life in data set [28] is 3 h; in data set [31], 3.5 h. Also, the AUC in [29] is 86 ng·h/g; in [30], 1339 ng·h/g. The logP in [26] is greater than 6. In addition, the Tmax in [32] and in data set [34] was 0.5 h throughout.
In the case of `Cc1ccccc1CSc1ccc(-c2ccccn2)nn1`, the EC50 in [35] was determined as 1830 nM.
The same measure, in the same setting: in the case of `CO/N=C(\C(=O)N[C@@H]1C(=O)N2C(C(=O)O)=C(CSc3nc(=O)c(=O)[nH]n3C)CS[C@H]12)c1csc(N)n1` [CEFTRIAXONE] it was greater than 10000 nM.
In the case of `COc1ccc(NC(=O)C(=O)NCC(c2ccccc2)N2CCN(C)CC2)cc1` (stereo not drawn), the bioavailability turned out to be 85% in [1] and 80.3% in data set [7]. The AUC was determined as 4414.35 ng·h/g in [2]; 507.2 ng·h/g in data set [6]; 315.635 ng·h/g in data set [10]; 536.768 ng·h/g in data set [11]; 2816.8 ng·h/g in data set [12]; 1959.7 ng·h/g in data set [17]. The half-life is 1.81 h in [36]; 1.62 h in data set [5]; 0.651 h in [13]; 4.76 h in [14]; 1.03 h in data set [18]; 1.02 h in data set [25]. Besides, the Cmax is 262 ng/g in data set [3]; 307 ng/g in [9]; 2460 ng/g in data set [15]; 1170 ng/g in data set [16]; 1220 ng/g in data set [21]; 204 ng/g in data set [22]. Also, the Tmax was found to be 0.5 h in [4]; 0.875 h in data set [8]; 0.5 h in [19]; 0.88 h in data set [20]; 0.5 h in data set [23]; 0.5 h in data set [24].

Usually bioavailability stands for the share of a dose that reaches the circulation, judged against a reference dose that is usually intravenous. Low readings indicate little systemic uptake, high ones much systemic uptake. One may read the Cmax as the highest concentration seen after dosing. One may read the Tmax as the time at which the peak concentration occurs. For orientation: logP means a log measure of how a compound divides between an organic and an aqueous phase. A lower logP goes with lower lipophilicity. In general, EC50 refers to the concentration giving half of the maximal effect.

The record behind these values is ChEMBL document CHEMBL5126643, “Design and Characterization of Novel Small Molecule Activators of Excitatory Amino Acid Transporter 2” (ACS Med Chem Lett, 2022).
